Measured values published in patent US10471046B2, “Method for treating, preventing, or reducing the risk of skin infection” (Melinta Subsidiary Corp., priority 2014, dated 2019).
Converted amounts (≈) assume the structure as drawn.

System: S. aureus
Experiment: Minimum inhibitory concentrations (MICs) for S. aureus of exemplary compounds (Table 2)
Assay type: cell-based
Conditions: Staphylococcus aureus, minimum inhibitory concentrations for S. aureus; read-out: MICs
Outline: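 MICs (μg/mL) against S. aureus come from microtiter-tray dilution susceptibility testing per NCCLS M7-A5, comparing growth with and without compound.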

Structure (SMILES)	MIC [µg/mL]
CC(=O)NC[C@H]1CN(c2ccc(-c3ccc(C(=O)NCc4ncsn4)cc3)c(F)c2)C(=O)O1 [Compound 4225, 4′-[5-(S)-(Acetylamino-methyl)-2-oxo-oxazolidin-3-yl]-2′-fluoro-biphenyl-4-carboxylic acid ([1,2,4]thiadiazol-3-ylmethyl)-amide]	1 (≈ 2.13 µM)
CC(=O)NC[C@H]1CN(c2ccc(-c3ccc(CSCC4CO4)cc3)c(F)c2)C(=O)O1 (stereo partly drawn) [Compound 4226, N-[3-(2-Fluoro-4′-oxiranylmethylsulfanylmethyl-biphenyl-4-yl)-2-oxo-oxazolidin-5-(S)-ylmethyl]-acetamide]	1 (≈ 2.32 µM)
CC(=O)NC[C@H]1CN(c2ccc(-c3ccc(CNCCC4C=Nc5ccc(C)cc54)cc3)c(F)c2)C(=O)O1 (stereo partly drawn) [Compound 4228, N-[3-(2-Fluoro-4′-{[2-(5-methyl-3H-indol-3-yl)-ethylamino]-methyl}-biphenyl-4-yl)-2-oxo-oxazolidin-5-(S)-ylmethyl]-acetamide]	2 (≈ 3.89 µM)
Cn1nnnc1SC[C@H]1CN(c2ccc(-c3ccc(CNCc4ccncc4)cc3)c(F)c2)C(=O)O1 [Compound 4231, 3-(2-Fluoro-4′-{[(pyridin-4-ylmethyl)-amino]-methyl}-biphenyl-4-yl)-5-(R)-(1-methyl-1H-tetrazol-5-ylsulfanylmethyl)-oxazolidin-2-one]	32 (≈ 63.3 µM)
CC(=O)NC[C@H]1CN(c2ccc(-c3ccc(CNCc4cocn4)cc3)c(F)c2)C(=O)O1 [Compound 4234, N-[3-(2-Fluoro-4′-{[(oxazol-4-ylmethyl)-amino]-methyl}-biphenyl-4-yl)-2-oxo-oxazolidin-5-(S)-ylmethyl]-acetamide]	2 (≈ 4.56 µM)
CC(=O)NC[C@H]1CN(c2ccc(-c3ccc(CNCc4cocn4)nc3)c(F)c2)C(=O)O1 [Compound 4235, N-{3-[3-Fluoro-4-(6-{[(oxazol-4-ylmethyl)-amino]-methyl}-pyridin-3-yl)-phenyl]-2-oxo-oxazolidin-5-(S)-ylmethyl}-acetamide]	2 (≈ 4.55 µM)
CC(=O)NC[C@H]1CN(c2ccc(-c3ccc(CNNC(=O)c4ccncc4)cc3)c(F)c2)C(=O)O1 [Compound 4236, N-(3-{2-Fluoro-4′-[N′-(pyridine-4-carbonyl)-hydrazinomethyl]-biphenyl-4-yl}-2-oxo-oxazolidin-5-(S)-ylmethyl)-acetamide]	0.25 (≈ 0.524 µM)
CC(=O)NC[C@H]1CN(c2ccc(-c3ccc(CNNC(=O)c4cccnc4)cc3)c(F)c2)C(=O)O1 [Compound 4237, N-(3-{2-Fluoro-4′-[N′-(pyridine-3-carbonyl)-hydrazinomethyl]-biphenyl-4-yl}-2-oxo-oxazolidin-5-(S)-ylmethyl)-acetamide]	0.25 (≈ 0.524 µM)

Continued by falling MIC, values first:

MIC [µg/mL]	Structure (SMILES)
32 (≈ 69.8 µM)	O=C1O[C@@H](Cn2cncn2)CN1c1ccc(-c2ccc(CNCc3ccncc3)cc2)c(F)c1 [Compound 4230, 3-(2-Fluoro-4′-{[(pyridin-4-ylmethyl)-amino]-methyl}-biphenyl-4-yl)-5-(R)-[1,2,4]triazol-1-ylmethyl-oxazolidin-2-one]
4 (≈ 8.86 µM)	CC(=O)NC[C@H]1CN(c2ccc(-c3ccc(CNCCc4c[nH]cn4)cc3)c(F)c2)C(=O)O1 [Compound 4227, N-[3-(2-Fluoro-4′-{[2-(1H-imidazol-4-yl)-ethylamino]-methyl}-biphenyl-4-yl)-2-oxo-oxazolidin-5-(S)-ylmethyl]-acetamide]
0.5 (≈ 1.14 µM)	CC(=O)NC[C@H]1CN(c2ccc(-c3ccc(CNCc4ncon4)cc3)c(F)c2)C(=O)O1 [Compound 4233, N-[3-(2-Fluoro-4′-{[([1,2,4]oxadiazol-3-ylmethyl)-amino]-methyl}-biphenyl-4-yl)-2-oxo-oxazolidin-5-(S)-ylmethyl]-acetamide]
0.25 (≈ 0.553 µM)	CC(=O)NC[C@H]1CN(c2ccc(-c3ccc(CNCc4cc(C)on4)cc3)c(F)c2)C(=O)O1 [Compound 4229, N-[3-(2-Fluoro-4′-{[(5-methyl-isoxazol-3-ylmethyl)-amino]-methyl}-biphenyl-4-yl)-2-oxo-oxazolidin-5-(S)-ylmethyl]-acetamide]
